# Measurements: a melting point compilation (Tetko et al.; mined from patent text by program, amines drawn as free bases though some values may be those of a salt)
row,melting point [°C],Structure (SMILES)
1,161 to 163,C1=C(COc2ccccc2)CCN(Cc2c[nH]c3ncccc23)C1
2,270,COc1ccc(CN2C(=O)[C@H](NC(=O)OC(C)(C)C)[C@@H]2/C=C/C(N)=O)c(OC)c1
3,228 to 231,COc1ccc(C(=O)Nc2ccccc2)cc1N(S(=O)(=O)c1cc(Cl)cc(Cl)c1)S(=O)(=O)c1cc(Cl)cc(Cl)c1
4,207 to 209,CC(C)(C)c1cc(-c2nn(CC(=O)N3CCOCC3)c3ncccc23)cc(C(C)(C)C)c1O
5,84 to 86,O=[N+]([O-])c1ccc(F)c(-c2ccccn2)c1F
6,83 to 85,COc1ccc(C=CCN2CCC3(CC2)CN(C(=O)c2ccnc(Cl)c2)c2ccc(Cl)cc23)cc1
7,191 to 193,COC(=O)c1c(I)cccc1Nc1ccccc1C(=O)O
8,187 to 188,O=C(NO)c1ccc(CNC(=O)c2[nH]c(-c3ccccc3)cc2-c2ccc(Cl)c(Cl)c2)cc1
9,120 to 121,CC(C)(C)OC(=O)Nc1ncccc1Br
10,227 to 228,CCOC(=O)N(CCNc1ccc2ncc(-c3ccc(C(N)=O)cc3)n2n1)c1ccccc1
11,189 to 190,Cc1cc(C)c(Oc2ccc(C=NNC(N)=O)cc2)c(C)c1
12,146 to 147,Cc1ccc(S(=O)(=O)N(Cc2ccc(C#N)cc2F)C2CCC2)cc1
13,106,CC(=O)OC1CSC(Oc2cccc(C)n2)C(OC(C)=O)C1OC(C)=O (stereo not drawn)
14,175 to 176,CCOC(=O)C(Cc1c[nH]c2cc(Cl)cc(Cl)c12)=NO
15,75.5 to 76,CC(C)c1cc2c(cc1CCSCC(=O)O)OCO2
16,84 to 85,O=C(Cl)COc1ccc([N+](=O)[O-])cc1
17,152 to 153,Cc1cc2nc(Cl)nc(Cl)c2s1
18,146 to 148,Cc1ccc(NS(=O)(=O)c2cc(C)c3cc(C(C)C)ccc(C)c2-3)cc1
19,117 to 119,CCOC(=O)Oc1ccc(S(=O)(=O)N2c3ccc(Cl)cc3-n3cccc3C2CC)cc1 (stereo not drawn)
20,210,COc1ccc(-c2cc(-c3ccc(F)cc3)ccc2C(=O)O)cc1OC
21,194 to 214,CCc1cn(C2OC(CN)C(O)C2F)c(=O)[nH]c1=O (stereo not drawn)
22,216 to 218,OCc1ccc2cnn(-c3ccnc(N[C@H]4CC[C@H](O)CC4)n3)c2c1
23,137 to 138,O=C(C1=NC=CC(Br)(C(=O)Nc2ccccc2)C1)c1ccccc1 (stereo not drawn)
24,138 to 144,CCS(=O)c1ccc(Oc2ccc(Cl)c(Cl)c2)nc1C#N (stereo not drawn)

row,melting point [°C],Structure (SMILES)
1,247 to 248,O=[N+]([O-])c1ccc(-c2ccc(-c3ccc([N+](=O)[O-])cc3Cl)o2)c(Cl)c1
2,80 to 82,CCCCCN1C(=O)C(=O)c2c(OC)cccc21
3,266 to 267,COc1ccc(-c2c(Cl)c(CN3C(=O)CCC3=O)nc3sc4c(c23)CCN(C(C)=O)C4)cc1
4,141 to 144,O=C(O)COc1c(-c2cccc(Cl)c2)cc(C(=O)NCCCCCCCCn2ccc3cc(F)ccc32)cc1-c1cccc(Cl)c1
5,59 to 61,CCCCc1ncc(CCN(C)C(Cc2ccccc2)C(=O)O)n1Cc1ccccc1Cl (stereo not drawn)
6,278 to 279,COC(=O)C=CC1=C(N)CCC1=O
7,102 to 103,CC(=O)c1c(O)cccc1OCC(C)(O)Oc1ccc(Br)cc1 (stereo not drawn)
8,144,O=C(C=CC(=O)OC(Cl)C(Cl)(Cl)Cl)OC(Cl)C(Cl)(Cl)Cl (stereo not drawn)
9,251 to 253,CC(=O)Nc1nc(C)c(-c2ccc(S(C)(=O)=O)cc2)s1
10,86,CCOC(=O)C(C)Oc1ccc(Oc2nc3ccccc3cc2Cl)cc1 (stereo not drawn)
11,92 to 97,CC(=N)NCCCCCCCCCCCCNC(C)=N
12,147 to 150,CSc1cc(C)nc(SC)c1NC(=O)CCCCSc1nc2ccccc2o1
13,> 250,N#Cc1[nH]c(Br)c(Br)c1-c1ccc(Cl)cc1
14,157 to 160,CC1(C)Cc2cc(S(N)(=O)=O)ccc2O1
15,291 to 294,O=C(c1ccc(-c2ccccc2)cc1)n1c2cc(O)c(O)cc2c2ccc(O)c(O)c21
16,93 to 99,CCn1c(Nc2ccc(C)cc2)nnc1[C@@H](C)NS(=O)(=O)c1ccc(Cl)c(Cl)c1
17,117 to 118,COc1ccc(CN(CC(=O)OC(C)(C)C)S(=O)(=O)c2ccc3c(Cl)cnc(Cl)c3c2)cc1
18,198,Clc1cccc(-c2nc(-c3ccc4c(c3)OCO4)c(-c3ccc4c(c3)OCO4)[nH]2)c1Cl
19,97 to 99,CCCCCCCCCCOc1ccc(-c2ccc(C#CCCC(C)OC)cc2)cc1 (stereo not drawn)
20,156,COc1ccc(Nc2nc(Cl)nc(NCC3CCCCC3)n2)cc1F
21,211 to 213,N#Cc1ncn2c1[C@@H]1CCN1C(=O)c1sccc1-2
22,155 to 156,CN(Cc1ccco1)c1nccc(Oc2ccc(NC(=O)c3cc(F)cc(N4CCCCC4)c3)c3ccccc23)n1
23,201 to 202,Cc1noc(NC(=O)N2CCN(c3nc(-c4cccc(Cl)c4)cs3)CC2)c1C
24,177 to 179,COc1cc(OC)nc(NC(=O)NS(=O)(=O)c2ccccc2C2CO2)n1 (stereo not drawn)

row,melting point [°C],Structure (SMILES)
1,118 to 119,O=C(c1ccc(Cl)c([N+](=O)[O-])c1)c1nccs1
2,55 to 56,CSc1nc(=O)n(-c2ccc(Cl)c(C(=O)OC(C)C)c2)c(=O)n1C#N
3,117 to 119,CCc1cc(C(=O)c2ccccc2Cl)c(-n2c(C)nnc2COC(=O)c2ccc(Cl)c(Cl)c2)s1
4,204 to 207,COc1cccc2c1C=C(C(=O)O)C(C(F)(F)F)O2 (stereo not drawn)
5,132 to 136,CC(C)n1nc(-c2nc(-n3cccc3)c(N)nc2-c2ccccc2)ccc1=O
6,128 to 129,CCCN1C(=O)OC2(CCN(CC=C(c3ccc(F)cc3)c3ccc(F)cc3)CC2)C1(C)O (stereo not drawn)
7,126 to 127,CN(CCOc1ccc(CCCC2OC(=O)NC2=O)cc1)c1ccccn1 (stereo not drawn)
8,201 to 204,O=c1n(CCO)c2cc(Br)c(Br)c(Br)c2n1CCO
9,86 to 88,COc1ccc(-c2nc3c(OC)cccc3s2)cc1
10,63 to 66,Nc1cc(Br)cnc1CCCCNC1=NS(=O)N=C1NCc1ccncc1 (stereo not drawn)
11,149 to 150,Cc1ccsc1C(=O)c1cc(CN(C)C)c(O)c(C(C)(C)C)c1
12,130 to 132,CCCCCCCCCC1C=CC(Oc2ccc(C(=O)O)o2)=C2N=C3CCCCC3=C21 (stereo not drawn)
13,177,CNc1ccc(N2CCC(C)CC2)c(C(=O)c2ccc(Cl)cc2)c1
14,165 to 167,COc1ccc(C2=NN(c3cccc(C(=O)O)c3)C(=O)C(C)(C)C2)cc1OC
15,254 to 256,Cn1cc(C2=C(c3cn(C)c4ccc(N)cc34)C(=O)NC2=O)c2ccccc21
16,173 to 175,CC(SC(=O)c1ccccc1)C(=O)NC(Cc1ccccc1)C(=O)O (stereo not drawn)
17,112 to 115,CC(C)NNC(=O)c1ccc(Cl)c(Cl)c1
18,147 to 148,COC(=O)c1cc(C(O)(C(F)(F)F)C(F)(F)F)ccc1NS(C)(=O)=O
19,209,Cc1cc(C(=O)O)c(C)c2c1S(=O)(=O)CCC2(C)C
20,> 300,Cc1nn(C)c2c1c(=O)n(-c1ccccc1)c1ncccc21
21,75 to 76,CCCc1c(OCCCCCOc2ccccc2CCCCC(=O)O)ccc2c1OCCC2=O
22,194 to 196,COCC1(C)CCCOc2cc(/C=C/c3ccc(C(=O)O)cc3)ccc21 (stereo not drawn)
23,263 to 264,CCOC(=O)c1cn(NC=O)c2cc(Cl)c(F)cc2c1=O
24,> 270,O=C1NCc2cc(C(=O)CCCl)ccc2N1

row,melting point [°C],Structure (SMILES)
1,110 to 113,Cc1ccc(C)c(-c2c(C)ccc(C)c2O)c1O
2,68,CCCOc1ccccc1N1CCN(CCCCn2c(=O)[nH]c(=O)c3ccccc32)CC1
3,125,CC(C)(C)OC(=O)N1CCC[C@H]1COc1cccc2[nH]ncc12
4,86 to 90,COC(=O)CC1=C(C)Cc2cc(F)c(F)cc21
5,107 to 108,COC(=O)c1cc([N+](=O)[O-])ccc1Nc1ccc(CCc2ccc(Cl)c(Cl)c2)cc1
6,173 to 177,CCC(=O)NS(=O)(=O)c1ccc2c3c(cc([N+](=O)[O-])c2c1)NCC3CCl (stereo not drawn)
7,120 to 121,CCNC(=O)c1c([Si](C)(C)C)ccc(C(F)F)c1Cl
8,119 to 120,CCCCCC(CC(=O)Nc1cc(CBr)ccc1C(C)(C)C)c1cccc2c1OCO2 (stereo not drawn)
9,95 to 98,COC(=O)[C@H](Cc1cccc2ccccc12)NC(=O)[C@H](CC(=O)OC(C)(C)C)NC(=O)c1cccc(NC(=O)OCc2ccccc2)c1
10,131 to 133,Cc1nc(Nc2c([N+](=O)[O-])cc([N+](=O)[O-])cc2C(F)(F)F)c(Cl)c(C)c1Cl
11,152,O=C(Nc1ccc(OS(=O)(=O)c2cccc(C(F)(F)F)c2)cc1[N+](=O)[O-])NS(=O)(=O)Cl
12,203 to 204,O=C(O)Cc1ccc2c(c1)CCc1cccnc1O2
13,136 to 137,CS(=O)(=O)Nc1cc(N)c([N+](=O)[O-])cc1OC1CCCCC1
14,153 to 156,CC(C)CCc1c(-c2ccc(S(N)(=O)=O)c(F)c2)cnn(CC(F)(F)F)c1=O
15,243,COc1ccc(-c2[nH]nc3c2C(=O)c2c(NC(=O)CNCCO)cccc2-3)cc1
16,257,N#Cc1c(N2CCN(C(=O)c3cccs3)CC2)c2ccsc2n(Cc2ccccc2)c1=O
17,285 to 288,O=C1CCc2cc3[nH]c(-c4ccncc4)nc3cc2N1
18,160 to 163,CCc1nn(C(C)C)c2cc(C(=O)O)ccc12
19,152 to 154,CN1C(=O)N=C(NCc2ccccc2)C1=O
20,201 to 203,CCn1nc(-c2nc(C#N)c(C#N)nc2-c2ccccc2)ccc1=O
21,138 to 140,CCOC(=O)c1nc(NCC(c2ccccc2)c2ccccc2)c2ncn(C3CCCCO3)c2n1 (stereo not drawn)
22,203 to 205,NS(=O)(=O)C1C=CC=CC1(CCNC(=O)C=Cc1cccs1)OCCOC(F)(F)F (stereo not drawn)
23,132 to 134,CCC(CC)N(O)C(=O)Nc1ccc(Cc2ccccc2)cc1
24,99.5 to 100,CCOC(=O)C(C(=O)OCC)c1csc(N)n1

row,Structure (SMILES),melting point [°C]
1,C#CC1(O)CCC2(C)C(CCC3C2CCC2(C)C(C(=O)CSCCO)CCC32)C1 (stereo not drawn),122 to 126
2,CS(=O)(=O)N(c1ccccc1)C1CCN(Cc2ccccc2)CC1,125
